This note sets out measurements from patent US12331044B2, “Inhibitors of histone deacetylase useful for the treatment or prevention of HIV infection” (Merck Sharp & Dohme LLC, priority 2018, dated 2025).

Read-outs that look alike come from different tables or passages of the source.

The target of assay [1] is human HDAC2 (Homo sapiens (Human), UniProt Q92769). The experiment in a line: HDAC2 inhibition assay (modified FLUOR DE LYS, 384-well). Format: biochemical. Particulars: […] enzyme, 40 μM substrate BML-KI104, 3 h pre-incubation; read-out: HDAC2 IC50.
human HDAC2, sequence (Q92769 whole entry): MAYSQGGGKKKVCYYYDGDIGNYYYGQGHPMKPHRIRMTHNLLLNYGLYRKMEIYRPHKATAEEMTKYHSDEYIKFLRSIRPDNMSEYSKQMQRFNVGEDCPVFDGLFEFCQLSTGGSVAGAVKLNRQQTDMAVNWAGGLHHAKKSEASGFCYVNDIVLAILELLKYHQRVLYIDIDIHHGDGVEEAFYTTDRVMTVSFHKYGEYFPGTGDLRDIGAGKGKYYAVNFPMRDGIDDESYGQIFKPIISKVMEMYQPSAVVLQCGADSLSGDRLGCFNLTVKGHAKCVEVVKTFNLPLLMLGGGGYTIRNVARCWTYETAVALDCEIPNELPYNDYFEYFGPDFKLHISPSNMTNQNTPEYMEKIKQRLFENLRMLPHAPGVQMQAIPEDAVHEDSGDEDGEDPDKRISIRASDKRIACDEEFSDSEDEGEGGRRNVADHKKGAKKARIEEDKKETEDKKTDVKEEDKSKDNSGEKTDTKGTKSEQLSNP
Assay [2] concerns the target human HDAC8 (Homo sapiens (Human), UniProt Q9BY41). In words: HDAC8 inhibition assay (modified FLUOR DE LYS, 384-well). Format: biochemical. Particulars: […] enzyme, 200 μM substrate BML-KI178, 3 h pre-incubation; read-out: HDAC8 IC50.
Description: The histone deacetylase activities of HDAC1, HDAC2, HDAC3, HDAC6, and HDAC8 were measured in modified FLUOR DE LYS assays in 384-well format. In this assay, HDAC enzymes are initially incubated with an F-acetyl (or -trifluoroacetyl)-L-lysine-containing substrate with a C-terminal amide having aminomethylcoumarin as the amine component. HDACs cleave the F-acetyl group, rendering the resulting product susceptible to AMC cleavage by trypsin. The released AMC is then detected by its fluorescence. […] All steps were performed at room temperature (23° C.). The assay was performed by pre-incubating serial dilutions of test compounds with the target HDAC prior to initiation with substrate. […] Final conditions used for each assay were: 1. […] The reactions were stopped and developed by addition of 30 ul of HDAC developer solution containing a saturating level of HDAC inhibitor as follows: 1. […] For data analysis, background subtracted product (fluorescence) vs. time data for each inhibitor concentration was fitted using a 4-parameter fit.
For assay [3], the target named is human HDAC1 (Homo sapiens (Human), UniProt Q13547).
human HDAC1, sequence (Q13547 whole entry): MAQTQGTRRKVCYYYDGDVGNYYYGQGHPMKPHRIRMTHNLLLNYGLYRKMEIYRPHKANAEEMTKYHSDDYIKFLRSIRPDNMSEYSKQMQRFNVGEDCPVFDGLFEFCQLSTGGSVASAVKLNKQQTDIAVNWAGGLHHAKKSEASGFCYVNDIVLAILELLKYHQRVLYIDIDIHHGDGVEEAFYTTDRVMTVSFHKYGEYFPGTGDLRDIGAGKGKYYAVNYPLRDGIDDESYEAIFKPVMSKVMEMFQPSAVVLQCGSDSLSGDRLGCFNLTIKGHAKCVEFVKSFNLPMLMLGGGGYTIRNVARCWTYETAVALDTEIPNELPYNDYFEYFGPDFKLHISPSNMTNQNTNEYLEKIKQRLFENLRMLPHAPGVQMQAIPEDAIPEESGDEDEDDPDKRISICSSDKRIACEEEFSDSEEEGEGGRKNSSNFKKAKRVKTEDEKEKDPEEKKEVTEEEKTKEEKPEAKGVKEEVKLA
The target of assay [4] is human HDAC3/SMRT heterodimer (Homo sapiens (Human), UniProt O15379).
human HDAC3/SMRT heterodimer, sequence (O15379 whole entry): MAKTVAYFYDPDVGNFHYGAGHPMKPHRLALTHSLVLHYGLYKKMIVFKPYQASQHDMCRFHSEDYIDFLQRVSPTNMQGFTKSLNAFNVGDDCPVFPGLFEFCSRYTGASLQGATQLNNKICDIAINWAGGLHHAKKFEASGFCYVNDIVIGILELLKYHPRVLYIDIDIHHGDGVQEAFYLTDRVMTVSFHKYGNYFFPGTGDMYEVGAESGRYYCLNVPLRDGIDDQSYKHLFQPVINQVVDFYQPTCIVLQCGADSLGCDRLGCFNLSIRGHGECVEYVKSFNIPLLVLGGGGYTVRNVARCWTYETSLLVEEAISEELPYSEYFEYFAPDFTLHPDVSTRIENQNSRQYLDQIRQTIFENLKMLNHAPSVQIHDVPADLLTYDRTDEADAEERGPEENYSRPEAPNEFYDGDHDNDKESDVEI
human HDAC3/SMRT heterodimer, sequence (Q9Y618 1-899 partner): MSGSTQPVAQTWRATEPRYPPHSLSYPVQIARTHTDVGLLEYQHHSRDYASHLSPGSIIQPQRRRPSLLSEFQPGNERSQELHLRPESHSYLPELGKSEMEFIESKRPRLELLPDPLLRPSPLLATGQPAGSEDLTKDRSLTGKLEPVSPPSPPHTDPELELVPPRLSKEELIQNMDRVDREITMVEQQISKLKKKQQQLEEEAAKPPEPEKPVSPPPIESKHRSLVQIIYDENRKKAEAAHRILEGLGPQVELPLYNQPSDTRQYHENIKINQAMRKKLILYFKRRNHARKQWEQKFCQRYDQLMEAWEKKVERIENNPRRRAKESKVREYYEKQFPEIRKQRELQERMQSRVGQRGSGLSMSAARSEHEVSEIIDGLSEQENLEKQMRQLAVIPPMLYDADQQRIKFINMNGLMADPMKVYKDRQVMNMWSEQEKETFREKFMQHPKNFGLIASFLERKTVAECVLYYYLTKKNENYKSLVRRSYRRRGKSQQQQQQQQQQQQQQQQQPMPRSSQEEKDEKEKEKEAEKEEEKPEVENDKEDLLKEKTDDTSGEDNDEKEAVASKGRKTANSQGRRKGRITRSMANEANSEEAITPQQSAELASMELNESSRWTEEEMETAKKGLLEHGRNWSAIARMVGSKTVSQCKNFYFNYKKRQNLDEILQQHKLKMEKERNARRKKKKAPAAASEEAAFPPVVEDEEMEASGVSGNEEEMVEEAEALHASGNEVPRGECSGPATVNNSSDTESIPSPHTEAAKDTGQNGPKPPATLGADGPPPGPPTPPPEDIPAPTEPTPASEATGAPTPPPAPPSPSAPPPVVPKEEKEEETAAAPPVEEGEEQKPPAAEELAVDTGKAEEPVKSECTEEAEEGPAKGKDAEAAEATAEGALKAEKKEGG
Assay [5] addresses HDAC6 (Homo sapiens (Human), UniProt Q9UBN7).
The test system of assay [6] is KARN cells (Jurkat 2C4). In words: cells. The conditions noted are these: Homo sapiens.
[7] abbreviates: read-out: Karn EC50 nM 0.1% NHS, 0.1% normal human serum, luciferase induction, 2 μM SAHA = 100%.
Setting [8] is: read-out: Karn EC50 nM 5% NHS, 5% normal human serum, luciferase induction, 2 μM SAHA = 100%.

HDAC6, sequence (Q9UBN7 whole entry): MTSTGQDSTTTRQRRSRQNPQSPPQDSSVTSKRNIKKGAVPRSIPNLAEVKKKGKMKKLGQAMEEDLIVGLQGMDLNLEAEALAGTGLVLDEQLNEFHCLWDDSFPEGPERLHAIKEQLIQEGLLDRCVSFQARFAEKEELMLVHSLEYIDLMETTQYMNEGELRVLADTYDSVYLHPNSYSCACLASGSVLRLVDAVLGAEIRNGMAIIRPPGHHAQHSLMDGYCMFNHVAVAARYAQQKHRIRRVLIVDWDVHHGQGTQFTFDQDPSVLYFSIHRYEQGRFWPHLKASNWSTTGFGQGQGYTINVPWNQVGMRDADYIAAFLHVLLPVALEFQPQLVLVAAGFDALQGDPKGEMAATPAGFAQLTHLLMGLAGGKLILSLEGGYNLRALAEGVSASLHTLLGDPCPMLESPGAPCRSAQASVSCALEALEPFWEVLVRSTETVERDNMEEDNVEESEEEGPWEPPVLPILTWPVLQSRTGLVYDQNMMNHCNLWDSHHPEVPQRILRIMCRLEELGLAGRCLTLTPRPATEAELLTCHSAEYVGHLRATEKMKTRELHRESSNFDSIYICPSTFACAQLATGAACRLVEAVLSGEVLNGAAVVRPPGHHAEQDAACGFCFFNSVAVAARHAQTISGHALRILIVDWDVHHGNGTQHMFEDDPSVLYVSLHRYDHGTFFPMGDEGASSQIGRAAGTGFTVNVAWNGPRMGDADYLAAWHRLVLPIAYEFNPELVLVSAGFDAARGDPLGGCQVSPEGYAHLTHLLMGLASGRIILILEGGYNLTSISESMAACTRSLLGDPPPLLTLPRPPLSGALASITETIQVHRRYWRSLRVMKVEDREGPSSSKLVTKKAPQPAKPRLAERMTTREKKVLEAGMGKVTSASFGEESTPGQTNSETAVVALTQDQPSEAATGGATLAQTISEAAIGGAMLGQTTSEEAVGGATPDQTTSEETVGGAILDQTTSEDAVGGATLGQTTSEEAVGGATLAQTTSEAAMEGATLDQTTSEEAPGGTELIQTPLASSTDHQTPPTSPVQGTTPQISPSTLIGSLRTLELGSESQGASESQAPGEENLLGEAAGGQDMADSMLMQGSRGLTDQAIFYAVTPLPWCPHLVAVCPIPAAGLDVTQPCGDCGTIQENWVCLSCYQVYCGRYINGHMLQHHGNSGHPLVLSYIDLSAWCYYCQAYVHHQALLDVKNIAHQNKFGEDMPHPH
human HDAC8, sequence (Q9BY41 whole entry): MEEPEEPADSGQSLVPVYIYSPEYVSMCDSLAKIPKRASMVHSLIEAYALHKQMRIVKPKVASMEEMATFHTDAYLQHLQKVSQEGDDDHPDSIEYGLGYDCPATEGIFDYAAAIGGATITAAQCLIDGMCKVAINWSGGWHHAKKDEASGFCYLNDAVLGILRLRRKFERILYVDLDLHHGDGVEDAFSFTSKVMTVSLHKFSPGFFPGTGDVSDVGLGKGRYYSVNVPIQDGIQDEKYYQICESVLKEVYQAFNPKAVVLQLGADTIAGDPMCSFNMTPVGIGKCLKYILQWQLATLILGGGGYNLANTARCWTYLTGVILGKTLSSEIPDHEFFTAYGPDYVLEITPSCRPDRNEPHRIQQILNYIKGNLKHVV

Regarding `Cn1cc2cc(-n3ccc([C@@H](N)CCCCCC(=O)c4ncco4)n3)ccc2n1` [Example 128, (7S)-7-amino-7-[1-(2-methyl-2H-indazol-5-yl)-1H-pyrazol-3-yl]-1-(1,3-oxazol-2-yl)heptan-1-one], the IC50 in assay [1] was 55 nM; in assay [2] it was 4300 nM; in assay [3], 8 nM; in assay [4] it was 10 nM; in assay [5], 45000 nM. In addition, the concentration for a half-maximal effect (EC50) was found to be 1200 nM in assay [6] (setting [7]) and 1500 nM in assay [6] (setting [8]).

For `N[C@@H](CCCCCC(=O)c1ncco1)c1ncc(-c2cccc(C(F)(F)F)c2F)[nH]1` [Example 138, (7S)-7-amino-7-{5-[2-fluoro-3-(trifluoromethyl)phenyl]-1H-imidazol-2-yl}-1-(1,3-oxazol-2-yl)heptan-1-one], the half-maximal inhibitory concentration (IC50) was 37 nM in assay [1]; 250 nM in assay [2]; 4.3 nM in assay [3]; 3.9 nM in assay [4]; > 900 nM in assay [5]. Further, the values for the EC50 in assay [6] (setting [7]) and in assay [6] (setting [8]) were 2200 nM and 3400 nM, respectively.

Regarding `N[C@@H](CCCCCC(=O)c1ncco1)c1ncc(-c2ccc(C(F)(F)F)cc2F)[nH]1` [Example 139, (7S)-7-amino-7-{5-[2-fluoro-4-(trifluoromethyl)phenyl]-1H-imidazol-2-yl}-1-(1,3-oxazol-2-yl)heptan-1-one], the IC50 was 28 nM in assay [1]; > 900 nM in assay [2]; 5.6 nM in assay [3]; 5.9 nM in assay [4]; > 900 nM in assay [5]. Besides, the EC50 in assay [6] (setting [7]) stood at 1700 nM; in assay [6] (setting [8]) it was 2700 nM.

As to `COc1ccc(-c2cnc([C@@H](N)CCCCCC(=O)c3ncco3)[nH]2)c(F)c1` [Example 140, (7S)-7-amino-7-[5-(2-fluoro-4-methoxyphenyl)-1H-imidazol-2-yl]-1-(1,3-oxazol-2-yl)heptan-1-one], the IC50 was 6 nM in assay [1]; > 900 nM in assay [2]; 1 nM in assay [3]; 1.3 nM in assay [4]; > 900 nM in assay [5]. For the same compound, the 50% effective concentration (EC50) in assay [6] (setting [7]) was found to be 390 nM; in assay [6] (setting [8]) it was 860 nM.

On to `CS(=O)(=O)c1ccc(-c2cnc([C@@H](N)CCCCCC(=O)c3ncco3)[nH]2)c(F)c1` [Example 143, (7S)-7-amino-7-{5-[2-fluoro-4-(methylsulfonyl)phenyl]-1H-imidazol-2-yl}-1-(1,3-oxazol-2-yl)heptan-1-one], for which the half-inhibitory concentration (IC50) in assay [1] was 35 nM; in assay [2], > 900 nM; in assay [3], 7.2 nM; in assay [4], 7.9 nM; in assay [5] it was > 900 nM. Moreover, the EC50 in assay [6] (setting [7]) is 1200 nM; in assay [6] (setting [8]) it was 1600 nM.

Consider `COc1cc(O[C@H]2C[C@H](OC)C2)cc(-c2cnc([C@@H](N)CCCCCC(=O)c3ncco3)[nH]2)c1F` [Example 144, (7S)-7-amino-7-(5-{2-fluoro-3-methoxy-5-[(trans-3-methoxycyclobutyl)oxy]phenyl}-1H-imidazol-2-yl)-1-(1,3-oxazol-2-yl)heptan-1-one], for which the IC50 in assay [1] is 39 nM; in assay [2], 210 nM; in assay [3] it was 7 nM; in assay [4] it was 6.4 nM; in assay [5], > 900 nM. Besides, the EC50 in assay [6] (setting [7]) stood at 650 nM; in assay [6] (setting [8]) it was 870 nM.

In the case of `COc1nc2ccccc2cc1-c1cnc([C@H](CCCCCC(=O)c2ncco2)NC(=O)c2ccncn2)[nH]1` [Example 149, N-[(1S)-1-[5-(2-methoxyquinolin-3-yl)-1H-imidazol-2-yl]-7-(1,3-oxazol-2-yl)-7-oxoheptyl]pyrimidine-4-carboxamide], the concentration for half-maximal inhibition (IC50) was 6.6 nM in assay [1]; 140 nM in assay [2]; 1.7 nM in assay [3]; 1.5 nM in assay [4]; 21000 nM in assay [5]. For the same compound, the concentration for a half-maximal effect (EC50) in assay [6] (setting [7]) came to 69 nM; in assay [6] (setting [8]), 360 nM.

With `COc1nc2ccccc2cc1-c1cnc([C@H](CCCCCC(=O)c2ncco2)NC(=O)Cn2cccc2)[nH]1` [Example 150, N-[(1S)-1-[5-(2-methoxyquinolin-3-yl)-1H-imidazol-2-yl]-7-(1,3-oxazol-2-yl)-7-oxoheptyl]-2-(1H-pyrrol-1-yl)acetamide], the IC50 in assay [1] worked out at 8.8 nM; in assay [2], 120 nM; in assay [3], 2.1 nM; in assay [4], 1.5 nM; in assay [5], 2700 nM. Also, the EC50 was 94 nM in assay [6] (setting [7]) and 500 nM in assay [6] (setting [8]).

As for `COc1nc2ccccc2cc1-c1cnc([C@H](CCCCCC(=O)c2ncco2)NC(=O)C2COCCO2)[nH]1` (stereo partly drawn) [Example 152, N-[(1S)-1-[5-(2-methoxyquinolin-3-yl)-1H-imidazol-2-yl]-7-(1,3-oxazol-2-yl)-7-oxoheptyl]-1,4-dioxane-2-carboxamide], the IC50 came out at 5.8 nM in assay [1]; 78 nM in assay [2]; 0.68 nM in assay [3]; 1.6 nM in assay [4]; 12000 nM in assay [5]. In addition, the concentration giving a half-maximal response (EC50) in assay [6] (setting [7]) amounted to 49 nM; in assay [6] (setting [8]), 350 nM.

In the case of `COc1cc2nc(C)ccc2cc1-c1cnc([C@H](CCCCCC(=O)c2ncco2)NC(=O)CN2CCOCC2=O)[nH]1` [Example 158, N-[(1S)-1-[5-(7-methoxy-2-methylquinolin-6-yl)-1H-imidazol-2-yl]-7-(1,3-oxazol-2-yl)-7-oxoheptyl]-2-(3-oxomorpholin-4-yl)acetamide], the half-maximal inhibitory concentration (IC50) in assay [1] was 5.6 nM; in assay [2], 48 nM; in assay [3], 1.1 nM; in assay [4], 1.5 nM; in assay [5] it was 590 nM. For the same compound, the EC50 in assay [6] (setting [7]) and in assay [6] (setting [8]) was 210 nM each time.

For the compound `COc1cc2nc(C)ccc2cc1-c1cnc([C@H](CCCCCC(=O)c2ncco2)NC(=O)c2cc3ncccn3n2)[nH]1` [Example 161, N-[(1S)-1-[5-(7-methoxy-2-methylquinolin-6-yl)-1H-imidazol-2-yl]-7-(1,3-oxazol-2-yl)-7-oxoheptyl]pyrazolo[1,5-a]pyrimidine-2-carboxamide], the half-maximal inhibitory concentration (IC50) was 11 nM in assay [1]; 44 nM in assay [2]; 1.7 nM in assay [3]; 0.57 nM in assay [4]; > 900 nM in assay [5]. The EC50 in assay [6] (setting [7]) was determined as 75 nM; in assay [6] (setting [8]) it was 210 nM.

As for `COc1cc2nc(C)ccc2cc1-c1cnc([C@H](CCCCCC(=O)c2ncco2)NC(=O)Cn2cccc2)[nH]1` [Example 162, N-[(1S)-1-[5-(7-methoxy-2-methylquinolin-6-yl)-1H-imidazol-2-yl]-7-(1,3-oxazol-2-yl)-7-oxoheptyl]-2-(1H-pyrrol-1-yl)acetamide], the IC50 in assay [1] was 24 nM; in assay [2], 300 nM; in assay [3], 4.2 nM; in assay [4] it was 1.5 nM; in assay [5], > 900 nM. The figures for the EC50 in assay [6] (setting [7]) and in assay [6] (setting [8]) were 650 nM and 1200 nM, respectively.

Take `COc1cc2nc(C)ccc2cc1-c1cnc([C@H](CCCCCC(=O)c2ncco2)NC(=O)c2cc3n(n2)CCCO3)[nH]1` [Example 163, N-[(1S)-1-[5-(7-methoxy-2-methylquinolin-6-yl)-1H-imidazol-2-yl]-7-(1,3-oxazol-2-yl)-7-oxoheptyl]-6,7-dihydro-5H-pyrazolo[5,1-b][1,3]oxazine-2-carboxamide]: the IC50 is 8.4 nM in assay [1]; 38 nM in assay [2]; 1.6 nM in assay [3]; 0.53 nM in assay [4]; > 900 nM in assay [5]. Moreover, the half-maximal effective concentration (EC50) in assay [6] (setting [7]) is 84 nM; in assay [6] (setting [8]) it was 210 nM.

For `COc1cc2nc(C)ccc2cc1-c1cnc([C@H](CCCCCC(=O)c2ncco2)NC(=O)c2cc3n(n2)CCS(=O)(=O)C3)[nH]1` [Example 165, N-[(1S)-1-[5-(7-methoxy-2-methylquinolin-6-yl)-1H-imidazol-2-yl]-7-(1,3-oxazol-2-yl)-7-oxoheptyl]-6,7-dihydro-4H-pyrazolo[5,1-c][1,4]thiazine-2-carboxamide 5,5-dioxide], the IC50 is 7.2 nM in assay [1]; 41 nM in assay [2]; 2.3 nM in assay [3]; 0.46 nM in assay [4]; > 900 nM in assay [5]. The half-maximal effective concentration (EC50) amounted to 370 nM in assay [6] (setting [7]) and 760 nM in assay [6] (setting [8]).

For `COc1cc2nc(C)ccc2cc1-c1cnc([C@H](CCCCCC(=O)c2ncco2)NC(=O)Cn2ccc(C)n2)[nH]1` [Example 166, N-[(1S)-1-[5-(7-methoxy-2-methylquinolin-6-yl)-1H-imidazol-2-yl]-7-(1,3-oxazol-2-yl)-7-oxoheptyl]-2-(3-methyl-1H-pyrazol-1-yl)acetamide], the concentration for half-maximal inhibition (IC50) in assay [1] was determined as 6.2 nM; in assay [2], 75 nM; in assay [3], 1.7 nM; in assay [4], 0.56 nM; in assay [5], 660 nM. Also, the 50% effective concentration (EC50) in assay [6] (setting [7]) stood at 77 nM; in assay [6] (setting [8]) it was 200 nM.

As to `COc1cc2nc(C)ccc2cc1-c1cnc([C@H](CCCCCC(=O)c2ncco2)NC(=O)c2cc3ccccn3n2)[nH]1` [Example 167, N-[(1S)-1-[5-(7-methoxy-2-methylquinolin-6-yl)-1H-imidazol-2-yl]-7-(1,3-oxazol-2-yl)-7-oxoheptyl]pyrazolo[1,5-a]pyridine-2-carboxamide], the 50% inhibitory concentration (IC50) in assay [1] was 13 nM; in assay [2], 63 nM; in assay [3], 2.2 nM; in assay [4], 0.59 nM; in assay [5], > 900 nM. Moreover, the results for the EC50 in assay [6] (setting [7]) and in assay [6] (setting [8]) were 83 nM and 400 nM, respectively.
